Laboratory results reported in US20040097591A1, “Use of selective progesterone receptor modulators for the treatment of androgen deficiency” (priority 2002, published 2004).

Tests used:
progesterone receptor = target: T1, progesterone receptor (Oryctolagus cuniculus, UniProt P06186); details: rabbit model, scale of 0-4; agonistic/antagonistic effect at the progesterone receptor; cited from earlier work
T1 construct: effects of compounds at the progesterone receptor using a rabbit model; from tissue; host or cells: living rabbit (whole-animal model)
T1 sequence (P06186 1-930): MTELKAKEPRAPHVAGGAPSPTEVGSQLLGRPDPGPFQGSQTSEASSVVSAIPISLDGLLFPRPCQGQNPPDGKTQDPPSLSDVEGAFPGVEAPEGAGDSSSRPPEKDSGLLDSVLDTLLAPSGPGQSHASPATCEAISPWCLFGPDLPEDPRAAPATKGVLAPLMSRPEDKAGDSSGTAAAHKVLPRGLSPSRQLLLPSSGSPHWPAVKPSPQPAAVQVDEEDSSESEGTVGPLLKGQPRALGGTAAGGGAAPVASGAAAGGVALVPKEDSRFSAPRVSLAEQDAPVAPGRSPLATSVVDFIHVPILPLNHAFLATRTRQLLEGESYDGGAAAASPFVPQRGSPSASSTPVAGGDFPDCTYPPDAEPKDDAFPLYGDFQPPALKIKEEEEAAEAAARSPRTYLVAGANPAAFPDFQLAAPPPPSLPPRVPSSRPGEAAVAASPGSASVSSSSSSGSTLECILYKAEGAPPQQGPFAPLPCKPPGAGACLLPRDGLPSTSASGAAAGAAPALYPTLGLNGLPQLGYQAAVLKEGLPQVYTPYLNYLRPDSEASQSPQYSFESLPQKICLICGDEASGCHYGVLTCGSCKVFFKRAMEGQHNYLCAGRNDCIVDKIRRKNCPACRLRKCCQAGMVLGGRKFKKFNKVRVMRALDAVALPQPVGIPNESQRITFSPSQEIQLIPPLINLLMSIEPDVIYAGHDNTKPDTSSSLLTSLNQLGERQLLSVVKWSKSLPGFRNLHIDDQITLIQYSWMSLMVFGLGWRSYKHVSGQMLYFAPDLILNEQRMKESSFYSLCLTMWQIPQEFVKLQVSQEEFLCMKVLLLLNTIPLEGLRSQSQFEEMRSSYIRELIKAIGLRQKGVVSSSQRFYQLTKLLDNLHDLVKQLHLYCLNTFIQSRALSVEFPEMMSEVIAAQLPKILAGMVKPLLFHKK

SHBG levels = test: Phase II study of J867: SHBG levels over 12 weeks; assay type: in vivo, female subjects
Experimental: (§1) The effect of SPRMs on testosterone levels and SHBG levels was studied using various doses of J867 over three months. The study was a phase II, multi-center, randomized, double blind, parallel group study of J867 at doses of 5 mg, 10 mg, and 25 mg once a day (QD)compared to placebo. Approximately 120 female subjects between the ages of 18 and 49 were enrolled in the study and randomly assigned to one of the four dosing groups above. During the 12 week study, testosterone and SHBG were measured at screening visits during weeks 2, 4, 8, and 12 of the study.
SHBG levels were also measured at weeks 2, 4, 8, and 12 of the study.

testosterone levels = test: Phase II study of J867: total testosterone levels over 12 weeks; assay type: in vivo, female subjects; details: for mean testosterone concentration increase over the treatment period: 12 week treatment, female subjects aged 18-49
Experimental: as §1
FIG. 1 is a graph showing total testosterone levels as a function of time during the study. […] Testosterone concentrations were relatively constant for the group receiving placebo. […] Over the treatment period, the mean testosterone concentrations for the 5 mg QD group increased approximately 7-15 ng/dL; the mean increase for the 10 mg QD group was approximately 15-21 ng/dL; and the mean concentrations observed following treatment with 25 mg QD increased approximately 16-25 ng/dL.

| Compound | McPhail score (progesterone receptor) | mean level of SHBG during treatment (SHBG levels; 5 mg QD) | mean level of SHBG during treatment (SHBG levels; 10 mg QD) | mean level of SHBG during treatment (SHBG levels; 25 mg QD) | SHBG during the treatment period of three months (FIG. 2) (SHBG levels; weeks 2, 4, 8, 12, doses not separated) | mean testosterone concentration increase over the treatment period (testosterone levels; 5 mg QD) | mean testosterone concentration increase over the treatment period (testosterone levels; 10 mg QD) | mean testosterone concentration increase over the treatment period (testosterone levels; 25 mg QD) | total testosterone levels (FIG. 1) (testosterone levels; all doses (5, 10, 25 mg QD)) | visit with largest mean increase of testosterone from baseline (testosterone levels; all three dose groups (5, 10, 25 mg QD)) | testosterone concentrations at the end of the study (testosterone levels; all three dose groups, week 12) |
| --- | --- | --- | --- | --- | --- | --- | --- | --- | --- | --- | --- |
| CC#C[C@]1(O)CC[C@H]2[C@@H]3CCC4=CC(=O)CCC4=C3[C@@H](c3ccc(N(C)C)cc3)C[C@@]21C [RU486, mifepristone] | less than 0.5 |  |  |  |  |  |  |  |  |  |  |
| COC[C@]1(OC)CC[C@H]2[C@@H]3CCC4=CC(=O)CCC4=C3[C@@H](c3ccc(/C=N/O)cc3)C[C@@]21C [J867, [4-[17β-Methoxy-17α-(methoxymethyl)-3-oxoestra-4,9-dien-11β-yl]benzaldehyd-(1E)-oxim]] |  | remained relatively constant | decreased from baseline | decreased from baseline | a decrease in SHBG | 7 to 15 ng/dL | 15 to 21 ng/dL | 16 to 25 ng/dL | testosterone levels increased with all doses | week 2 visit | still elevated above baseline |
| CC(=O)[C@H]1CC[C@H]2[C@@H]3CCC4=CC(=O)CC[C@]4(C)[C@H]3CC[C@]12C [progesterone] | 4 |  |  |  |  |  |  |  |  |  |  |
